Test [1] concerns the target mTOR/GbL/Raptor (mTORC1) (Homo sapiens, UniProt P42345). Put plainly: mTOR/GbL/Raptor (mTORC1) ELISA assay. In kind it is biochemical. Conditions: phosphorylation of 4E-BP1; 0.2 nM mTORC1, 10 μM ATP; read-out: IC50 in this assay (mTORC1 ELISA). In short, it runs like this:
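ELISA read-out: phospho-4E-BP1 captured on Ni-chelate plates and detected with anti-phospho antibody plus HRP-anti-IgG luminescence. The kinase step ran 120 min at ambient temperature with 0.2 nM human mTORC1, 10 µM ATP, 50 nM His-4E-BP1, 10 mM MnCl2, pH 7.2 HEPES.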
Background: In an ELISA, binding on a coated surface is turned into a signal by an enzyme label.

Test [2] deals with PI3Kα (Homo sapiens, UniProt P42336). The test can be described thus: PI3K biochemical assay (luciferase-luciferin ATP consumption). As to conditions: 1.5 nM enzyme, 1 μM ATP, 10 μM PIP2; read-out: IC50 for PI3Kα in this assay. On the procedure: PI3Kα activity is measured as the percent of ATP consumed following the kinase reaction using luciferase-luciferin-coupled chemiluminescence. Reactions were conducted in 384-well white, medium binding microtiter plates (Greiner). Kinase reactions were initiated by combining test compounds, ATP, substrate (PIP2), and kinase in a 20 μL volume in a buffer solution. The standard PI3Kalpha assay buffer is composed 50 mM Tris, pH 7.5, 1 mM EGTA, 10 mM MgCl2, 1 mM DTT and 0.03% CHAPS. The standard assay concentrations for enzyme, ATP, and substrate are 1.5 nM, 1 μM, and 10 μM, respectively. The reaction mixture was incubated at ambient temperature for approximately 2 h. Following the kinase reaction, a 10 μL aliquot of luciferase-luciferin mix (Promega Kinase-Glo) was added and the chemiluminescence signal measured using a Victor2 plate reader (Perkin Elmer). Total ATP consumption was limited to 40-60% and IC50 values of control compounds correlate well with literature references. Substituting PI3Kα with PI3Kβ, PI3Kγ, or PI3Kδ, the inhibitory activity of the compounds for the other isoforms of I3K were measured.
PI3Kα, sequence (P42336 whole entry, species assumed): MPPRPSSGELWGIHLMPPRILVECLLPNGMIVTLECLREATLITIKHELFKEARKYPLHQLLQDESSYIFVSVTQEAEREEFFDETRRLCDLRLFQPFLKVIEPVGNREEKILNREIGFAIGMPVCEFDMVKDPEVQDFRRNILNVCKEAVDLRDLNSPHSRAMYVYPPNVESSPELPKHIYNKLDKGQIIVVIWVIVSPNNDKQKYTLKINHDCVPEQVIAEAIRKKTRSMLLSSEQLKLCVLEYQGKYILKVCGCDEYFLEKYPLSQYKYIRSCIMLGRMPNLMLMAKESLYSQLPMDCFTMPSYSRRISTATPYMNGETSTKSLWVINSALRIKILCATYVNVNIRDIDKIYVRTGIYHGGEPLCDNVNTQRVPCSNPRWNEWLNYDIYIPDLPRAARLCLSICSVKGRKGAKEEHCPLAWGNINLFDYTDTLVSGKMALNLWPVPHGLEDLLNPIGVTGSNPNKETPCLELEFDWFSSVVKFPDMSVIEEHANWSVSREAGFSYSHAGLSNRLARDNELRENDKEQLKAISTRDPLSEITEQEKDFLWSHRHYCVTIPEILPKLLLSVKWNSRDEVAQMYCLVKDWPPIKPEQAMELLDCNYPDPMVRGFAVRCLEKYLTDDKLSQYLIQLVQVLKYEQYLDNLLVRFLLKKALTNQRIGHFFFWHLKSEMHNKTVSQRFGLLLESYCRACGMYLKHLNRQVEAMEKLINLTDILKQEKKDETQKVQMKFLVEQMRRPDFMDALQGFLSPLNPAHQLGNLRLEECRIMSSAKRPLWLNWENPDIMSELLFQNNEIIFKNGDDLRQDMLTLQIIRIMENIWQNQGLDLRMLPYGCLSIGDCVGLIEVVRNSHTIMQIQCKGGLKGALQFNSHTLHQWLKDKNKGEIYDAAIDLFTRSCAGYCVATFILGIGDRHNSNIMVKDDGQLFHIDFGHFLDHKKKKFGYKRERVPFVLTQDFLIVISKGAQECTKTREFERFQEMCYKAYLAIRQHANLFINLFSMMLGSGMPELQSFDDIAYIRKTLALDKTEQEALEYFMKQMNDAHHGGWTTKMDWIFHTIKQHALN
PI3Kα, sequence (P27986 whole entry partner, species assumed): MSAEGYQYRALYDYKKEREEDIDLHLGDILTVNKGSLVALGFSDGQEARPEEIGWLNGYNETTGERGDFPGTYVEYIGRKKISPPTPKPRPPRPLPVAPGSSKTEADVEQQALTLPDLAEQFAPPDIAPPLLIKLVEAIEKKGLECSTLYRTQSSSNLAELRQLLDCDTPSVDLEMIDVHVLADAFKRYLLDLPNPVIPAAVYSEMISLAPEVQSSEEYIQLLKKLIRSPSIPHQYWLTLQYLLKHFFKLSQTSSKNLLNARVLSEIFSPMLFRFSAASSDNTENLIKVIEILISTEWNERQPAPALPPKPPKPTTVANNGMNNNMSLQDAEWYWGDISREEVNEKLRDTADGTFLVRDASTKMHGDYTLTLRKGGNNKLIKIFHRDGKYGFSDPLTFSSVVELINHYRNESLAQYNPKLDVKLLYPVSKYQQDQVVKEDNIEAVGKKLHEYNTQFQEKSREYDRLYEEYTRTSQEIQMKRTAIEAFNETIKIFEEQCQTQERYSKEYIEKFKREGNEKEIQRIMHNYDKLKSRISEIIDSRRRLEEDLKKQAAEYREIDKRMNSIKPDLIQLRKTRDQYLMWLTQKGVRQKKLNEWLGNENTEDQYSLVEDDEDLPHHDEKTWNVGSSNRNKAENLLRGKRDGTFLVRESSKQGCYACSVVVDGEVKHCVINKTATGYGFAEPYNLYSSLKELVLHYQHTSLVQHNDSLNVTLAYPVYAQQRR

In patent US8648066B2 (Exelixis, Inc., priority 2009, dated 2014) one finds IC50 data, which are given here for 22 compounds.

For orientation: IC50 means the concentration needed to halve the response being measured.

Regarding `COC(=O)Nc1nc2cc(-c3ccc4c(c3)CN(c3ccnc5ccccc35)CCO4)ccc2n1C` [Example 115, methyl [1-methyl-5-(4-quinolin-4-yl-2,3,4,5-tetrahydro-1,4-benzoxazepin-7-yl)-1H-benzimidazol-2-yl]carbamate], the IC50 in test [1] is no less than 2000 nM; in test [2], 1000 to 2000 nM.

In the case of `CCn1cnc2cc(-c3ccc4c(c3)CN(c3ccnc5ccccc35)CCO4)ccc21` [Example 127, 7-(1-ethyl-1H-benzimidazol-5-yl)-4-quinolin-4-yl-2,3,4,5-tetrahydro-1,4-benzoxazepine], the results for the IC50 in test [1] and in test [2] were 250 to 1000 nM and no less than 2000 nM, respectively.

Turning to `Cc1nc2cc(-c3ccc4c(c3)CN(c3ccnc5ccccc35)CCO4)ccc2s1` [Example 128, 7-(2-methyl-1,3-benzothiazol-5-yl)-4-quinolin-4-yl-2,3,4,5-tetrahydro-1,4-benzoxazepine], the IC50 in test [1] and in test [2] was no less than 2000 nM throughout.

As to `Cc1ncnc(N2CCOc3ccc(-c4ccc(C(=O)N[C@H]5CCNC5)cc4)cc3C2)c1Cc1ccc(F)cc1` [Example 173, 4-(4-{5-[(4-fluorophenyl)methyl]-6-methylpyrimidin-4-yl}-2,3,4,5-tetrahydro-1,4-benzoxazepin-7-yl)-N-[(3S)-pyrrolidin-3-yl]benzamide], the IC50 in test [1] is 250 to 1000 nM; in test [2] it was no less than 2000 nM.

Take `c1ccc2c(N3CCOc4ccc(-c5ccc6nc(C7CCCC7)[nH]c6c5)cc4C3)ccnc2c1` [Example 198, 7-(2-cyclopentyl-1H-benzimidazol-6-yl)-4-quinolin-4-yl-2,3,4,5-tetrahydro-1,4-benzoxazepine]: the IC50 in test [1] and in test [2] was no less than 2000 nM each time.

Turning to `c1ccc2c(N3CCOc4ccc(-c5ccsc5)cc4C3)ccnc2c1` [Example 204, 4-quinolin-4-yl-7-(3-thienyl)-2,3,4,5-tetrahydro-1,4-benzoxazepine], the IC50 in test [1] is no less than 2000 nM; in test [2] it was 1000 to 2000 nM.

For `c1ccc2ncc(-c3ccc4c(c3)CN(c3ccnc5ccccc35)CCO4)cc2c1` [Example 205, 7-quinolin-3-yl-4-quinolin-4-yl-2,3,4,5-tetrahydro-1,4-benzoxazepine], the IC50 in test [1] and in test [2] was 1000 to 2000 nM in each case.

Turning to `c1ccc2sc(-c3ccc4c(c3)CN(c3ccnc5ccccc35)CCO4)cc2c1` [Example 206, 7-(1-benzothien-2-yl)-4-quinolin-4-yl-2,3,4,5-tetrahydro-1,4-benzoxazepine], the results for the IC50 in test [1] and in test [2] were 1000 to 2000 nM and no less than 2000 nM, respectively.

Turning to `OCc1ncc(-c2ccc(-c3ccc4c(c3)CN(c3ncnc5cccnc35)CCO4)cc2)[nH]1` [Example 212, {5-[4-(4-pyrido[3,2-d]pyrimidin-4-yl-2,3,4,5-tetrahydro-1,4-benzoxazepin-7-yl)phenyl]-1H-imidazol-2-yl}methanol], the figures for the IC50 in test [1] and in test [2] were 250 to 1000 nM and no less than 2000 nM, respectively.

Take `CCn1ccc2cc(-c3ccc4c(c3)CN(c3ccnc5ccccc35)CCO4)cnc21` [Example 223, 7-(1-ethyl-1H-pyrrolo[2,3-b]pyridin-5-yl)-4-quinolin-4-yl-2,3,4,5-tetrahydro-1,4-benzoxazepine]: the IC50 in test [1] and in test [2] was no less than 2000 nM throughout.

Regarding `[H]/N=c1\ncc(-c2ccc3c(c2)CN(c2ncnc4c2CC(C)(C)CC4)CCO3)cn1O` [Example 231, (2E)-5-[4-(6,6-dimethyl-5,6,7,8-tetrahydroquinazolin-4-yl)-2,3,4,5-tetrahydro-1,4-benzoxazepin-7-yl]-2-iminopyrimidin-1(2H)-ol], the IC50 in test [1] is 1000 to 2000 nM; in test [2], no less than 2000 nM.

As for `c1ccc(-c2nc(N3CCOc4ccc(-c5ccc6nc[nH]c6c5)cc4C3)c3ccccc3n2)cc1` [Example 232, 7-(1H-benzimidazol-6-yl)-4-(2-phenylquinazolin-4-yl)-2,3,4,5-tetrahydro-1,4-benzoxazepine], the results for the IC50 in test [1] and in test [2] were no less than 2000 nM and 1000 to 2000 nM, respectively.

With `Cc1nc2ccc(-c3ccc4c(c3)CN(c3ccnc(N)c3)CCO4)cc2[nH]1` [Example 262, 4-[7-(2-methyl-1H-benzimidazol-6-yl)-2,3-dihydro-1,4-benzoxazepin-4(5H)-yl]pyridin-2-amine], the IC50 in test [1] and in test [2] was no less than 2000 nM each time.

On to `CCNc1nc2ccc(-c3ccc4c(c3)CN(c3nc(C)nc5cc(OCC)ccc35)CCO4)cc2[nH]1` [Example 288, N-ethyl-6-{4-[7-(ethyloxy)-2-methylquinazolin-4-yl]-2,3,4,5-tetrahydro-1,4-benzoxazepin-7-yl}-1H-benzimidazol-2-amine], for which the results for the IC50 in test [1] and in test [2] were no less than 2000 nM and 1000 to 2000 nM, respectively.

For `COc1ccc2c(N3CCOc4ccc(-c5ccc6ncsc6c5)cc4C3)nc(C)nc2c1` [Example 294, 7-(1,3-benzothiazol-6-yl)-4-[2-methyl-7-(methyloxy)quinazolin-4-yl]-2,3,4,5-tetrahydro-1,4-benzoxazepine], the IC50 in test [1] was no less than 2000 nM; in test [2], 1000 to 2000 nM.

As for `COc1cc(-c2ccc3c(c2)CN(c2nc(CN(C)C)nc4c2CC(C)(C)CC4)CCO3)ccc1Cl` [Example 326], the IC50 in test [1] was in the range of 250 to 1000 nM; in test [2] it was 1000 to 2000 nM.

In the case of `COc1cccc(-c2ccc3c(c2)CN(c2nc(CN(C)C)nc4c2CC(C)(C)CC4)CCO3)c1` [Example 328, 1-(6,6-dimethyl-4-{7-[3-(methyloxy)phenyl]-2,3-dihydro-1,4-benzoxazepin-4(5H)-yl]-5,6,7,8-tetrahydroquinazolin-2-yl)-N,N-dimethylmethanamine], the figures for the IC50 in test [1] and in test [2] were no less than 2000 nM and 1000 to 2000 nM, respectively.

Regarding `COc1ccc(-c2ccc3c(c2)CN(c2nc(CN(C)C)nc4c2CC(C)(C)CC4)CCO3)cc1` [Example 329, 1-(6,6-dimethyl-4-{7-[4-(methyloxy)phenyl]-2,3-dihydro-1,4-benzoxazepin-4(5H)-yl}-5,6,7,8-tetrahydroquinazolin-2-yl)-N,N-dimethylmethanamine], the IC50 in test [1] is no less than 2000 nM; in test [2], 1000 to 2000 nM.

In the case of `Cc1nc2ccc(-c3ccc4c(c3)CN(c3cc(C(C)(C)O)nc5c3CC(C)(C)CC5)CCO4)cc2[nH]1` [Example 362], the IC50 in test [1] and in test [2] was 50 to 250 nM each time.

As to `CN(C)Cc1nc2c(c(N3CCOc4ccc(-c5cccc(C(N)=O)c5)cc4C3)n1)CC(C)(C)CC2` [Example 433, 3-(4-{2-[(dimethylamino)methyl]-6,6-dimethyl-5,6,7,8-tetrahydroquinazolin-4-yl}-2,3,4,5-tetrahydro-1,4-benzoxazepin-7-yl)benzamide], the IC50 was no less than 2000 nM in test [1] and 1000 to 2000 nM in test [2].

As to `Cc1nc2c(-c3ccc4c(c3)CN(c3ncnc5c3CC(C)(C)CC5)CCO4)cncc2[nH]1` [Example 475, 4-(6,6-dimethyl-5,6,7,8-tetrahydroquinazolin-4-yl)-7-(2-methyl-3H-imidazo[4,5-c]pyridin-7-yl)-2,3,4,5-tetrahydro-1,4-benzoxazepine], the IC50 in test [1] and in test [2] was no less than 2000 nM throughout.

For the compound `Cc1c(N2CCOc3ccc(-c4cnc5nc(C6CC6)[nH]c5c4)cc3C2)ncnc1N(C)[C@H](C)c1ccccc1` [Example 535, 6-[7-(2-cyclopropyl-1H-imidazo[4,5-b]pyridin-6-yl)-2,3-dihydro-1,4-benzoxazepin-4(5H)-yl]-N,5-dimethyl-N-[(1R)-1-phenylethyl]pyrimidin-4-amine], the IC50 in test [1] fell in the range of 250 to 1000 nM; in test [2] it was 1000 to 2000 nM.
